Laboratory results: paper PMC13077603, “Fluorine‐18‐Labeled Nucleotide Analogs Targeting Ecto‐5'‐Nucleotidase (CD73) for Positron Emission Tomography Imaging of Solid Tumors” (Angewandte Chemie (International Ed. in English), 2026)
Several values for one entry are separate records, joined by “and”; a condition that tells them apart may be missing. Equal values may be shown once.

Experiments:
[1] = molecular target: Human serum albumin (HSA) (Homo sapiens, UniProt P02768); assay: Plasma protein binding (human serum albumin binding); type: in vitro ADME; conditions: human serum albumin, read-out: Plasma protein binding (PPB) (converted)
Procedure: Human serum albumin (HSA) binding.
Plasma protein binding was determined following previously published procedure.^[38^]

[2] = molecular target: T1, CD73/AMPase activity in human breast tumor tissues (Homo sapiens, UniProt P21589); assay: In situ enzyme histochemistry of AMPase activity in breast tumor cryosections; type: biochemical; conditions: 10–50 nM inhibitor, 400 µM AMP, tissue cryosections
T1 construct: cryosections of breast tumor samples as well as sentinel lymph node samples were investigated; from tissue; host or cells: primary breast tumors and sentinel lymph nodes of two patients, 6 µm cryosections
T1 sequence (P21589 27-574): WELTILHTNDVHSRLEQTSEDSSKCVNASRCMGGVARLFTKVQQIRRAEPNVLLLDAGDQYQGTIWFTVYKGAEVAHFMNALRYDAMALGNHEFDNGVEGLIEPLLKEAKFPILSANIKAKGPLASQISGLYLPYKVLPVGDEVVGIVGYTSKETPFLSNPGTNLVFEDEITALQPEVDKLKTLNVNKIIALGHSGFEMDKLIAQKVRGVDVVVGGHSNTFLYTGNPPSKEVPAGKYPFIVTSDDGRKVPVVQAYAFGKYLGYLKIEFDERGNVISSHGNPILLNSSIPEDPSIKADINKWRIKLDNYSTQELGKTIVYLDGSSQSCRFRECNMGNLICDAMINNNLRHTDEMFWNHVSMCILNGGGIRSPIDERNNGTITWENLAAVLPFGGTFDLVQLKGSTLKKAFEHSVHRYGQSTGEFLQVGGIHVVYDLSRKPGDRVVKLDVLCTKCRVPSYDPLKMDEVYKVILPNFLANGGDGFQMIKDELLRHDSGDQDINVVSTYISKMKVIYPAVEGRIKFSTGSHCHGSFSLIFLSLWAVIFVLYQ
Procedure: Subsequent analysis of CD73‐mediated AMPase activities was performed by incubating tissue cryosections with AMP and CD73 inhibitors at different concentrations. Figure 2 depicts representative images of AMP‐specific staining in breast tumors from patient X (panel A) and patient Y (panel B), determined in the absence (control) and in the presence of 10 nM of the potent CD73 inhibitor 1.
FIGURE 3 Effects of CD73 inhibitors on AMPase activity in human breast tumor tissues. The effects of CD73 inhibitors on AMPase activity was determined in situ by incubating primary breast tumor samples from patient X (A) and patient Y (B) with 400 µM AMP and 1.5 mM Pb(NO3)2 in the absence (control) and the presence of the indicated concentrations of CD73 inhibitor. (C). Mean pixel intensities of brown staining due to the hydrolysis of AMP leading to Pb3(PO4)2 precipitation were quantified in the selected regions and expressed as arbitrary units (AU) (mean ± SEM; n = 2). Scale bars: 2 mm (A, B), and 500 µm (A, right insets).
For the localization of AMPase activities in human tumors, the lead nitrate-based enzyme histochemistry was employed. […] AMPase activity was determined by measuring AMP-specific brown staining intensities from the images using QuPath v.0.3.0 software. […] The average DAB intensity levels were measured as described earlier.^[39^] […]

[3] = molecular target: T2, Soluble recombinant rat CD73 (Rattus norvegicus, UniProt P21588); assay: CD73 enzyme inhibition assay, soluble rat CD73; type: biochemical; conditions: soluble recombinant rat CD73, Km 59 µM, substrate AMP (5 µM)
T2 sequence (P21588 29-551 limits assumed): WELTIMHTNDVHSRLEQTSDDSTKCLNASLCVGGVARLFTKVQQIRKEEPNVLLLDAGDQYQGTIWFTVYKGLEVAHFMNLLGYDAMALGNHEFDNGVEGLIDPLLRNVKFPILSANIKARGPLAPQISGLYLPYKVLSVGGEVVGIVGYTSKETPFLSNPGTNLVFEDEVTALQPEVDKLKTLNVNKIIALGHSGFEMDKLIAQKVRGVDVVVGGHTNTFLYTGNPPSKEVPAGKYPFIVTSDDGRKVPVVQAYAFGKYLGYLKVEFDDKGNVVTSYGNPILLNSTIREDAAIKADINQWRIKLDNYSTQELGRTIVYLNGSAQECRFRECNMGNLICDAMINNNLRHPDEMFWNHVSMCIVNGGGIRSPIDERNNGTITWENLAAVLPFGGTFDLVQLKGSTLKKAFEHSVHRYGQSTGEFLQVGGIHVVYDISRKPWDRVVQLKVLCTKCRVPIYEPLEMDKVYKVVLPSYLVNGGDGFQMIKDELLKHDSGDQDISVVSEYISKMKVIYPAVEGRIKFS
Procedure: Both compounds were evaluated for metabolic stability in mouse liver microsomes (MLM) and plasma protein binding (PPB) (Table 1).
The CD73 enzyme inhibition assay of recombinant soluble CD73, membrane-bound human CD73, soluble rat CD73 and mouse CD73 was performed as previously described.^[16,35^]

[4] = Stability in mouse liver microsomes (MLM); type: in vitro ADME; conditions: after 90 min of coincubation, 5 µM compound, 37 °C
Procedure: An aqueous buffer of 75 mM PBS, 12.5 mM MgCl2, 0.6 mM NADPH, 1 mg/mL mouse liver microsomes and 5 µM of the respective compound was prepared. 200 µL of these samples were incubated for 90 min at 37 °C and […]. Afterward, acetonitrile/methanol (400 µL, 1:1) was added, and the samples were cooled to 0 °C for 10 min. 600 µL buffer was added and the solution was centrifuged for 15 min at 17,880 g. The supernatant was centrifuged again for 15 min at 17,880 g and 4 °C. The obtained solution was diluted with H2O/CH3CN/CH3OH (1:1:1) to a suitable concentration for quantification. Shortly before injection into HPLC, the solution was centrifuged again for 2 min at 17,880 g and 4 °C. The amount of remaining compound in the solution was quantified by ion count in SIM mode via HPLC-MS (CH3CN/water). The injection volume was 50 µL. Every experiment was performed in triplicate.

Sequence of Human serum albumin (HSA) (P02768 25-609): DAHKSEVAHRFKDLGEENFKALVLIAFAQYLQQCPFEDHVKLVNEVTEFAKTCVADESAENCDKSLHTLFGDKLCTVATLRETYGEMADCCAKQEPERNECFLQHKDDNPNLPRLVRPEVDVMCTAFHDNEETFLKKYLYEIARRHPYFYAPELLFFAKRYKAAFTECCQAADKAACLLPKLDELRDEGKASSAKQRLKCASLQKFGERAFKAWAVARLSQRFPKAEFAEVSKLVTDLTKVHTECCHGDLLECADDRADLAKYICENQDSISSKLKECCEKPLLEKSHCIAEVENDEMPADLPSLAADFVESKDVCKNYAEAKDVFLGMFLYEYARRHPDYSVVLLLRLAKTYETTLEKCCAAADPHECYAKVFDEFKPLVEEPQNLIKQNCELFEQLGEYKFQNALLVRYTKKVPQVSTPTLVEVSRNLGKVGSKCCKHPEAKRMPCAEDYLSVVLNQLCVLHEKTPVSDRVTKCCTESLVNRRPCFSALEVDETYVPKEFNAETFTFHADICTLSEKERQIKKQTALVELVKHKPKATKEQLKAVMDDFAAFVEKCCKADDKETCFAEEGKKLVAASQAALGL

fraction unbound [1]: < 0.01
Reduction of CD73/AMPase activity in the breast TME [2]: 60%–70
Ki [3]: 6.09 nM
Metabolic stability in mouse liver microsomes (MLM): % decomposition [4]: 17 ± 2% and 17%
SMILES: CCCN(Cc1ccc(-c2cn(CCF)nn2)cc1)c1nc(Cl)nc2c1ncn2[C@@H]1O[C@H](COP(=O)(O)CP(=O)(O)O)[C@@H](O)[C@H]1O [compound 1]
